Data from PubChem BioAssay (NCI).
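Five compound concentrations were applied to cells in 96-well plates for 48 hours; endpoints were derived by simple linear interpolation of the resulting dose-response curve. Here, GI50 denotes the concentration required for 50% inhibition of growth. TGI is the concentration that stops growth completely.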

Assays:
Assay in all cases: inhibition of tumour cell growth, NCI panel, 48 h
ACHN renal = tested on: ACHN renal
HCT-15 colon = tested on: HCT-15 colon
SK-OV-3 ovarian = tested on: SK-OV-3 ovarian
OVCAR-8 ovarian = tested on: OVCAR-8 ovarian
SF-539 CNS = tested on: SF-539 CNS
786-0 renal = tested on: 786-0 renal
CAKI-1 renal = tested on: CAKI-1 renal
SN12C renal = tested on: SN12C renal
NCI-H522 lung = tested on: NCI-H522 lung
EKVX NSCLC = tested on: EKVX NSCLC

Structure (SMILES) | GI50 (ACHN renal) | TGI (ACHN renal) | GI50 (HCT-15 colon) | TGI (HCT-15 colon) | GI50 (SK-OV-3 ovarian) | TGI (SK-OV-3 ovarian) | GI50 (OVCAR-8 ovarian) | TGI (OVCAR-8 ovarian) | GI50 (SF-539 CNS) | TGI (SF-539 CNS) | GI50 (786-0 renal) | TGI (786-0 renal) | GI50 (CAKI-1 renal) | TGI (CAKI-1 renal) | GI50 (SN12C renal) | TGI (SN12C renal) | GI50 (NCI-H522 lung) | TGI (NCI-H522 lung) | TGI (EKVX NSCLC)
Cc1cc(Cl)ccc1NC(=O)NC(C)(C)COC(=O)Nc1cccc(Cl)c1 | 5.6 µM | > 100 µM | 2.48 µM | 13.1 µM | 22.5 µM | 96 µM | 5.42 µM | 64.8 µM | 9.4 µM | > 100 µM | 24.2 µM | > 100 µM | 4.38 µM | 75.3 µM | 7.14 µM | > 100 µM |  |  | 
CCC1(CC)C(=O)[N-]C(=O)[N-]C1=O.[Au+].[Au+].c1ccc([PH+](c2ccccc2)c2ccccc2)cc1.c1ccc([PH+](c2ccccc2)c2ccccc2)cc1 | 1.7 µM | 3.07 µM |  |  | 1.73 µM | 3.11 µM |  |  |  |  | 0.911 µM | 2.14 µM |  |  | 2.08 µM | 4.75 µM | 0.119 µM | 0.244 µM | 
CCC(=O)OC1=CN2C(=NC(c3ccc(N)cc3)=CC2c2cc(OC)c(OC)c(OC)c2)S1 (configuration not stated) | 3.35 µM | 18.2 µM | 2.47 µM | 29.6 µM | 3.45 µM | 13 µM | 3.39 µM | 22.3 µM | 2.12 µM | 6.01 µM | 4.57 µM | 23.4 µM | 2.91 µM | 11.2 µM | 4.34 µM | 22.2 µM | 3.49 µM | 12.6 µM | 
O=C(O)Cc1cc(=O)[nH]c2c1C(=O)CCC2 |  | > 100 µM |  | > 100 µM |  | > 100 µM |  | > 100 µM |  |  |  | > 100 µM |  |  |  | > 100 µM |  | > 100 µM | > 100 µM
Cc1[nH]n(-c2ccccc2)c(=O)c1C(=O)c1ccccc1 | > 25 µM | > 25 µM | > 23.9 µM | > 25 µM | > 25 µM | > 25 µM | > 25 µM | > 25 µM | > 25 µM | > 25 µM | > 25 µM | > 25 µM | > 25 µM | > 25 µM | > 25 µM | > 25 µM | > 25 µM | > 25 µM | 
COc1cc(CNC(=O)CCSc2nc3ccccc3c(=O)n2Cc2cc(OC)c(OC)c(OC)c2)cc(OC)c1OC | 8.09 µM | > 100 µM | 2.47 µM | > 100 µM | 5.34 µM | 18.6 µM | 10 µM | 50.7 µM | 2.86 µM | 10.7 µM | 5.1 µM | 29 µM | 5.46 µM | > 100 µM | 8.1 µM | > 100 µM | 6.55 µM | 27.5 µM | 
O=c1oc2cc(OS(=O)(=O)c3ccccc3)ccc2c2c1CCCCC2 | > 100 µM | > 100 µM | 3.92 µM | > 100 µM | > 100 µM | > 100 µM | 86.1 µM | > 100 µM | 6.68 µM | > 100 µM | 6.24 µM | > 100 µM | 7.38 µM | > 100 µM | 7.24 µM | > 100 µM | 6.44 µM | > 100 µM | 
COC(=O)c1nn(C(=N)c2ccc(Cl)cc2)c2c1CCCCC2 |  | > 100 µM |  | > 100 µM |  | > 100 µM |  |  |  | > 100 µM |  | > 100 µM |  | > 100 µM |  | > 100 µM |  | > 100 µM | 
NC(=S)N/N=C\c1nccc2c(C(F)(F)C(F)(F)C(F)(F)F)cccc12 | 0.0582 µM | 1.31 µM | 0.0488 µM | > 100 µM | 0.0466 µM | 1.43 µM | 0.0402 µM | 1.59 µM | 0.193 µM | 0.772 µM | 0.26 µM | 0.978 µM | 0.183 µM | 1.59 µM | 0.116 µM | 2.31 µM | 0.211 µM | 0.756 µM | 
FC(F)(F)c1cc(NC2=NCCN=C(Nc3cc(C(F)(F)F)cc(C(F)(F)F)c3)SS2)cc(C(F)(F)F)c1 | 2.6 µM | 8.93 µM | 3.33 µM | 14.2 µM | 8.63 µM | 54.3 µM | 3.7 µM | 16.9 µM | 5.21 µM | 18.3 µM | 5.26 µM | 17.7 µM | 3.12 µM | 13.1 µM | 3.29 µM | 13.1 µM | 2.84 µM | 10.6 µM | 
Cc1ccc(S(=O)(=O)c2ccsc2N)cc1 | > 100 µM | > 100 µM | > 100 µM | > 100 µM | > 100 µM | > 100 µM | > 100 µM | > 100 µM | > 100 µM | > 100 µM | > 100 µM | > 100 µM | > 100 µM | > 100 µM | > 100 µM | > 100 µM | > 100 µM | > 100 µM | 
Cc1ccc(/C=C2\CN(Cc3cn(CCNc4ccnc5cc(Cl)ccc45)nn3)C/C(=C\c3ccc(C)cc3)C2=O)cc1 | 1.78 µM | 3.25 µM |  |  | 1.9 µM | 3.57 µM | 2.03 µM | 4.85 µM | 1.79 µM | 3.26 µM | 1.85 µM | 3.36 µM |  |  | 1.93 µM | 3.95 µM | 1.98 µM | 3.66 µM | 
